Experimental data as given in patent US7785849B2, “Cyclic nucleotide-specific phosphodiesterases from Leishmania and uses thereof” (priority 2003, dated 2010).
Where two headings read alike, the source gives them in different places.

Experiments:
LmPDE-B1 = LmPDE-B1 (Leishmania major, UniProt Q6S997); test: PDE activity assay in yeast lysates, recombinant LmPDE-B1 (3H-cAMP hydrolysis); type: biochemical; details: for IC50: read-out: IC50, inhibition of LmPDE-B1 activity
Experimental: (§1) PP5 yeast cells expressing LmPDE-A, LmPDE-B1, and LmPDE-B2, were lysed as described previously (Zoraghi et al. (2001) J. Biol. Chem. 276, 11559-11566). The cells were grown to mid-log to end-log phase in SC-leu medium, collected, resuspended in the original volume of prewarmed YPD medium, and incubated for an additional 3.5 hours at 30° C. to maximize protein expression. The cells were then harvested, washed twice in H2O, pelleted by centrifugation, and stored overnight at −70° C. The cell pellet was thawed on ice and resuspended in ice-cold extraction buffer (50 mM Hepes pH 7.5, 100 mM NaCl, 1× Complete® protease inhibitor cocktail without EDTA (Roche)). Cells were lysed by grinding with glass beads (0.45-0.50 mm) in 2 ml Sarstedt tubes using a FastPrep FP120 cell disrupter (3×45 seconds at setting 4). The lysed cells were centrifuged and glycerol was added to the resulting supernatant to a final concentration of 15% (v/v). Aliquots were snap-frozen in liquid nitrogen and were stored at −70° C.
PDE activity was determined in 50 mM HEPES, pH 7.5, 0.5 mM EDTA, 10 mM MgCl2, and 50 mg/ml BSA in a final assay volume of 100 μl. Each assay contained 50,000 cpm of ^3H-labeled cAMP, with unlabeled cAMP added to adjust the desired total substrate concentration. […] The standard reaction time was set to 15 minutes, and the amount of enzyme was always chosen so that no more than 15% of the substrate was hydrolyzed. Inhibitor studies were done at a cAMP concentration of 1 μM. Inhibitors were dissolved in DMSO, but the final DMSO concentration in the assays never exceeded 1%. Control reactions with DMSO alone were always included. Reactions were stopped by the addition of 25 μl of 0.5 N HCl. For the subsequent dephosphorylation of the AMP, the stopped reactions were neutralized with 20 μl of 1 M Tris base, followed by the addition of 10 μl of alkaline phosphatase (Roche Diagnostics; 1 unit/10 μl). The dephosphorylation reactions were incubated for 15 minutes at 37° C. and were then applied to 1 ml columns of QAE-Sephadex A25 in 30 mM ammonium formiate, pH 6.0. The ^3H-adenosine formed as a reaction product was eluted with 1.6 ml of 30 mM ammonium formiate, pH 6.0 and was collected into 3.5 ml of water-soluble scintillation fluid (Packard Ultima Flo). Assays were performed in triplicate, and data were analyzed using the Graph Pad Prism software package.

LmPDE-B2 = test: PDE activity assay in yeast lysates, recombinant LmPDE-B2 (3H-cAMP hydrolysis); type: biochemical, Leishmania major; details: 100 μM inhibitor, 1 μM cAMP
Experimental: as §1
PDE activity was determined in 50 mM HEPES, pH 7.5, 0.5 mM EDTA, 10 mM MgCl2, and 50 mg/ml BSA in a final assay volume of 100 μl. Each assay contained 50,000 cpm of ^3H-labeled cAMP, with unlabeled cAMP added to adjust the desired total substrate concentration. […] Assays were performed in triplicate, and data were analyzed using the Graph Pad Prism software package.

Sequence of LmPDE-B1 (Q6S997 entry or part of it): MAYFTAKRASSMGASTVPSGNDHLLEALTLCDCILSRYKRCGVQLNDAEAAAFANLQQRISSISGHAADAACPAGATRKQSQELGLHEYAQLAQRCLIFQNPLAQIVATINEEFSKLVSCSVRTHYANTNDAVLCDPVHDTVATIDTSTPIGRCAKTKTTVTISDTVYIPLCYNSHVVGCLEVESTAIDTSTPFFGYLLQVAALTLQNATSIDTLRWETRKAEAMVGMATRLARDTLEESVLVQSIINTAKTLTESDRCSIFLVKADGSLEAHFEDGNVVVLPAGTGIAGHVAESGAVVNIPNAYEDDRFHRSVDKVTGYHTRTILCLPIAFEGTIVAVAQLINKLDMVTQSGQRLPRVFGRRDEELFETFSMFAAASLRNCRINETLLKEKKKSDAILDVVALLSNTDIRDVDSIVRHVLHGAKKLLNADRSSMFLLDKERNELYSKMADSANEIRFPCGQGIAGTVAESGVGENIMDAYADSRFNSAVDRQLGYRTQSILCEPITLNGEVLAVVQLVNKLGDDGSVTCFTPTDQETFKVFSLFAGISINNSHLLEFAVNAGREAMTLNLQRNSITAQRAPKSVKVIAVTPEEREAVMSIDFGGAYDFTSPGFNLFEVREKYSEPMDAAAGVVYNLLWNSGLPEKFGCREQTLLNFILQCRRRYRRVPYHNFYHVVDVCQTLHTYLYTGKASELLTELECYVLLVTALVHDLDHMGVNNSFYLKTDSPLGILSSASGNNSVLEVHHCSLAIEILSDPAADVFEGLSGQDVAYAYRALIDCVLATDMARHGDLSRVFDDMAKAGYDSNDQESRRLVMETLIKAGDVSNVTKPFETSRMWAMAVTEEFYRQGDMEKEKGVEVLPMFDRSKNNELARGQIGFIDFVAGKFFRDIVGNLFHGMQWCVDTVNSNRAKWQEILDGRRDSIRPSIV

Compound | effect on rate of hydrolysis of cAMP by LmPDE-B1 (LmPDE-B1; 100-fold excess of cGMP) | sensitivity of LmPDE-B2 activity to PDE inhibitor (LmPDE-B2) | IC50 (LmPDE-B1; 1 μM cAMP, yeast lysate) [µM] | sensitivity of LmPDE-B1 activity to PDE inhibitor (LmPDE-B1; 100 μM inhibitor, 1 μM cAMP) | sensitivity of LmPDE-B1 activity to PDE inhibitor (LmPDE-B1) | IC50 (LmPDE-B1) [µM]
Nc1nc2c(ncn2[C@@H]2O[C@@H]3COP(=O)(O)O[C@H]3[C@H]2O)c(=O)[nH]1 [cGMP, cyclic guanosine mono-phosphate] | did not affect | – | – | – | – | –
COc1cc2c(cc1OC)-c1c/c(=N\c3c(C)cc(C)cc3C)n(C)c(=O)n1CC2 [trequinsin] | – | partly sensitive | 96.6 | partly sensitive | – | –
OCCN(CCO)c1nc(N2CCCCC2)c2nc(N(CCO)CCO)nc(N3CCCCC3)c2n1 [dipyridamole] | – | partly sensitive | – | – | partly sensitive | 22.6
